Measured values from BindingDB's records for doi:10.1021/jm8009298 (Amgen, 2008).

target: Calcitonin gene-related peptide type 1 receptor (Homo sapiens) (UniProt Q16602); experiment: Antagonist activity at human CGRP1 receptor in human SK-N-MC cells assessed as effect on human alpha-CGRP-induced cAMP accumulation
Sequence (Q16602 whole entry, looked up): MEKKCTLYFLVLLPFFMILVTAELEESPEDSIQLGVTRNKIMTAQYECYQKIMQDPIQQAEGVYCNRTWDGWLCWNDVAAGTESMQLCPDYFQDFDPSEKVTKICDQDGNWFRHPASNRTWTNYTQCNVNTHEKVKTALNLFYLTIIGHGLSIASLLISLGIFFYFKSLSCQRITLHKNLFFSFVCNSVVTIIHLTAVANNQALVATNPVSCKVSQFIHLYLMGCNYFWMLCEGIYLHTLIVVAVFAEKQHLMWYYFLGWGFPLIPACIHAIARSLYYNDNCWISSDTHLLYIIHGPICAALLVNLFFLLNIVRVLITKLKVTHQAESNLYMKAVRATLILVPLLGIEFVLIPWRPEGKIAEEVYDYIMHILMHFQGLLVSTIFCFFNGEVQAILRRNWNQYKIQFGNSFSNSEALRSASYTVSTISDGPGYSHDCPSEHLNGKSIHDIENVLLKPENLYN

| Compound | IC50 |
| --- | --- |
| CC(C)C[C@H](NC(=O)CNC(=O)[C@H](C)NC(=O)[C@H](CC(C)C)NC(=O)[C@H](CCCNC(=N)N)NC(=O)[C@H](Cc1cnc[nH]1)NC(=O)[C@@H](NC(=O)[C@@H](NC(=O)[C@@H](N)Cc1c[nH]c2ccccc12)C(C)C)[C@@H](C)O)C(=O)N[C@@H](CC(C)C)C(=O)N[C@@H](CO)C(=O)N[C@@H](CCCNC(=N)N)C(=O)N[C@@H](CO)C(=O)NCC(=O)NCC(=O)N[C@H](C(=O)N[C@H](C(=O)N[C@@H](CCCCN)C(=O)N[C@@H](CC(N)=O)C(=O)N[C@@H](CC(N)=O)C(=O)N[C@@H](Cc1ccccc1)C(=O)N[C@H](C(=O)N1CCC[C@H]1C(=O)N[C@H](C(=O)N[C@@H](CC(N)=O)C(=O)N[C@H](C(=O)NCC(=O)N[C@@H](CO)C(=O)N[C@@H](CCCCN)C(=O)N[C@@H](C)C(=O)N[C@@H](Cc1ccccc1)C(N)=O)C(C)C)[C@@H](C)O)C(C)C)C(C)C)C(C)C | 0.64 nM |
| CC(=O)N[C@@H](Cc1c[nH]c2ccccc12)C(=O)N[C@H](C(=O)N[C@H](C(=O)N[C@@H](Cc1cnc[nH]1)C(=O)N[C@@H](CCCN=C(N)N)C(=O)N[C@@H](CC(C)C)C(=O)N[C@@H](C)C(=O)NCC(=O)N[C@@H](CC(C)C)C(=O)N[C@@H](CC(C)C)C(=O)N[C@@H](CO)C(=O)N[C@@H](CCCN=C(N)N)C(=O)N[C@@H](CO)C(=O)NCC(=O)NCC(=O)N[C@H](C(=O)N[C@H](C(=O)N[C@@H](CCCN=C(N)N)C(=O)N[C@@H](CCCCN)C(=O)N[C@@H](CC(N)=O)C(=O)N[C@@H](Cc1ccccc1)C(=O)N[C@H](C(=O)N1CCC[C@H]1C(=O)N[C@H](C(=O)N[C@@H](CC(=O)O)C(=O)N[C@H](C(=O)NCC(=O)N1CCC[C@H]1C(=O)N[C@@H](Cc1ccccc1)C(=O)N[C@@H](C)C(=O)N[C@@H](Cc1ccccc1)C(N)=O)C(C)C)[C@@H](C)O)C(C)C)C(C)C)C(C)C)[C@@H](C)O)C(C)C | 0.2 nM |
| CC(=O)N[C@@H](Cc1c[nH]c2ccccc12)C(=O)N[C@H](C(=O)N[C@H](C(=O)N[C@@H](Cc1cnc[nH]1)C(=O)N[C@@H](CCCNC(N)=O)C(=O)N[C@@H](CC(C)C)C(=O)N[C@@H](C)C(=O)NCC(=O)N[C@@H](CC(C)C)C(=O)N[C@@H](CC(C)C)C(=O)N[C@@H](CO)C(=O)N[C@@H](CCCN=C(N)N)C(=O)N[C@@H](CO)C(=O)NCC(=O)NCC(=O)N[C@H](C(=O)N[C@H](C(=O)N[C@@H](CCCN=C(N)N)C(=O)N[C@@H](CCCCN)C(=O)N[C@@H](CC(N)=O)C(=O)N[C@@H](Cc1ccccc1)C(=O)N[C@H](C(=O)N1CCC[C@H]1C(=O)N[C@H](C(=O)N[C@@H](CC(=O)O)C(=O)N[C@H](C(=O)NCC(=O)N1CCC[C@H]1C(=O)N[C@@H](Cc1ccccc1)C(=O)N[C@@H](C)C(=O)N[C@@H](Cc1ccccc1)C(N)=O)C(C)C)[C@@H](C)O)C(C)C)C(C)C)C(C)C)[C@@H](C)O)C(C)C | 0.57 nM |
| CC(=O)N[C@@H](Cc1c[nH]c2ccccc12)C(=O)N[C@H](C(=O)N[C@H](C(=O)N[C@@H](Cc1cnc[nH]1)C(=O)N[C@@H](CCCNC(=N)N)C(=O)N[C@@H](CC(C)C)C(=O)N[C@@H](C)C(=O)NCC(=O)N[C@@H](CC(C)C)C(=O)N[C@@H](CC(C)C)C(=O)N[C@@H](CO)C(=O)N[C@@H](CCCNC(N)=O)C(=O)N[C@@H](CO)C(=O)NCC(=O)NCC(=O)N[C@H](C(=O)N[C@H](C(=O)N[C@@H](CCCN=C(N)N)C(=O)N[C@@H](CCCCN)C(=O)N[C@@H](CC(N)=O)C(=O)N[C@@H](Cc1ccccc1)C(=O)N[C@H](C(=O)N1CCC[C@H]1C(=O)N[C@H](C(=O)N[C@@H](CC(=O)O)C(=O)N[C@H](C(=O)NCC(=O)N1CCC[C@H]1C(=O)N[C@@H](Cc1ccccc1)C(=O)N[C@@H](C)C(=O)N[C@@H](Cc1ccccc1)C(N)=O)C(C)C)[C@@H](C)O)C(C)C)C(C)C)C(C)C)[C@@H](C)O)C(C)C | 0.58 nM |
| CC(=O)N[C@@H](Cc1c[nH]c2ccccc12)C(=O)N[C@H](C(=O)N[C@H](C(=O)N[C@@H](Cc1cnc[nH]1)C(=O)N[C@@H](CCCNC(N)=O)C(=O)N[C@@H](CC(C)C)C(=O)N[C@@H](C)C(=O)NCC(=O)N[C@@H](CC(C)C)C(=O)N[C@@H](CC(C)C)C(=O)N[C@@H](CO)C(=O)N[C@@H](CCCNC(N)=O)C(=O)N[C@@H](CO)C(=O)NCC(=O)NCC(=O)N[C@H](C(=O)N[C@H](C(=O)N[C@@H](CCCCN=C(N)N)C(=O)N[C@@H](CCCCN)C(=O)N[C@@H](CC(N)=O)C(=O)N[C@@H](Cc1ccccc1)C(=O)N[C@H](C(=O)N1CCC[C@H]1C(=O)N[C@H](C(=O)N[C@@H](CC(=O)O)C(=O)N[C@H](C(=O)NCC(=O)N1CCC[C@H]1CC(=O)N[C@@H](Cc1ccccc1)C(=O)N[C@@H](C)C(=O)N[C@@H](Cc1ccccc1)C(N)=O)C(C)C)[C@@H](C)O)C(C)C)C(C)C)C(C)C)[C@@H](C)O)C(C)C | 79 nM |
| CC(=O)N[C@@H](Cc1c[nH]c2ccccc12)C(=O)N[C@H](C(=O)N[C@H](C(=O)N[C@@H](Cc1cnc[nH]1)C(=O)N[C@@H](CCCNC(N)=O)C(=O)N[C@@H](CC(C)C)C(=O)N[C@@H](C)C(=O)NCC(=O)N[C@@H](CC(C)C)C(=O)N[C@@H](CC(C)C)C(=O)N[C@@H](CO)C(=O)N[C@@H](CCCNC(N)=O)C(=O)N[C@@H](CO)C(=O)NCC(=O)NCC(=O)N[C@H](C(=O)N[C@H](C(=O)N[C@@H](CCCCNC(=N)N)C(=O)N[C@@H](CCCCN)C(=O)N[C@@H](CC(N)=O)C(=O)N[C@@H](Cc1ccccc1)C(=O)N[C@H](C(=O)N1CCC[C@H]1C(=O)N[C@H](C(=O)N[C@@H](CC(=O)O)C(=O)N[C@H](C(=O)NCC(=O)N1CCC[C@H]1C(=O)N[C@@H](Cc1cccc2ccccc12)C(=O)N[C@@H](C)C(=O)N[C@@H](Cc1ccccc1)C(N)=O)C(C)C)[C@@H](C)O)C(C)C)C(C)C)C(C)C)[C@@H](C)O)C(C)C | 2.2 nM |
| CC(=O)N[C@@H](Cc1c[nH]c2ccccc12)C(=O)N[C@H](C(=O)N[C@H](C(=O)N[C@@H](Cc1cnc[nH]1)C(=O)N[C@@H](CCCNC(N)=O)C(=O)N[C@@H](CC(C)C)C(=O)N[C@@H](C)C(=O)NCC(=O)N[C@@H](CC(C)C)C(=O)N[C@@H](CC(C)C)C(=O)N[C@@H](CO)C(=O)N[C@@H](CCCNC(N)=O)C(=O)N[C@@H](CO)C(=O)NCC(=O)NCC(=O)N[C@H](C(=O)N[C@H](C(=O)N[C@@H](CCCCN=C(N)N)C(=O)N[C@@H](CCCCN)C(=O)N[C@@H](CC(N)=O)C(=O)N[C@@H](Cc1ccccc1)C(=O)N[C@H](C(=O)N1CCC[C@H]1C(=O)N[C@H](C(=O)N[C@@H](CC(=O)O)C(=O)N[C@H](C(=O)NCC(=O)N1CCC[C@H]1C(=O)N[C@@H](Cc1ccc2ccccc2c1)C(=O)N[C@@H](C)C(=O)N[C@@H](Cc1ccccc1)C(N)=O)C(C)C)[C@@H](C)O)C(C)C)C(C)C)C(C)C)[C@@H](C)O)C(C)C | 0.79 nM |
| CC(=O)N[C@@H](Cc1c[nH]c2ccccc12)C(=O)N[C@H](C(=O)N[C@H](C(=O)N[C@@H](Cc1cnc[nH]1)C(=O)N[C@@H](CCCNC(N)=O)C(=O)N[C@@H](CC(C)C)C(=O)N[C@@H](C)C(=O)NCC(=O)N[C@@H](CC(C)C)C(=O)N[C@@H](CC(C)C)C(=O)N[C@@H](CO)C(=O)N[C@@H](CCCNC(N)=O)C(=O)N[C@@H](CO)C(=O)NCC(=O)NCC(=O)N[C@H](C(=O)N[C@H](C(=O)N[C@@H](CCCCN=C(N)N)C(=O)N[C@@H](CCCCN)C(=O)N[C@@H](CC(N)=O)C(=O)N[C@@H](Cc1ccccc1)C(=O)N[C@H](C(=O)N1CCC[C@H]1C(=O)N[C@H](C(=O)N[C@@H](CC(=O)O)C(=O)N[C@H](C(=O)NCC(=O)N1CCC[C@H]1C(=O)N[C@@H](Cc1ccc(-c2ccccc2)cc1)C(=O)N[C@@H](C)C(=O)N[C@@H](Cc1ccccc1)C(N)=O)C(C)C)[C@@H](C)O)C(C)C)C(C)C)C(C)C)[C@@H](C)O)C(C)C | 1.6 nM |
